Measurements from article PMC9131456, “Structure-Based Discovery of Lipoteichoic Acid Synthase Inhibitors” (Journal of Chemical Information and Modeling, 2022).

Key:
[1] = test system: S. aureus (strain Newman); assay: Antimicrobial microdilution broth assay (growth inhibition); format: cell-based; conditions: S. aureus strain Newman growth, OD600nm after 20 h at 37 °C, MH2 broth, mean ± s.e.m., n = 3
Protocol: All the compounds tested in this study were dissolved in dimethyl sulfoxide (DMSO) at an initial stock concentration of 20 mM and stored at −20 °C. These compounds were tested for their antimicrobial activity using the microdilution broth method[66] following the protocol described by Richter et al.[30] Briefly, overnight cultures of S. aureus (strain Newman) grown at 37 °C in cation-adjusted Mueller Hinton II (MH2) broth were adjusted to an OD600nm of 0.6 before back-diluted with a factor of 1:2000 with the same broth. After that, 200 μL of the diluted bacterial culture were dispensed into each well of 96-well plates supplemented with the compounds to the desired concentrations. The plates were then sealed with a moisture membrane barrier and incubated statically for 20 h at 37 °C. After that, the OD600nm values of the cultures in each well were measured using a CLARIOstar microplate reader (BMG Labtech). The procedures for the potentiation assays were by large the same as described above with some variations. In such assays, MRSA strain COL was grown in the 96-well plates supplemented with different concentrations of compound 9 with methicillin, carbenicillin, or polymyxin B in a checkerboard format. Their synergistic effects were quantified by OD600nm measurements using a CLARIOstar microplate reader (BMG Labtech).

HEK293 cells = assay: LDH release cytotoxicity assay; format: cell-based, human; conditions: 200 μM compound, 24 h
Protocol: The human embryonic kidney (HEK293) cells were maintained in Dulbecco’s modified Eagle medium (DMEM) supplemented with 10% fetal bovine serum and 100 units/mL of penicillin–streptomycin. For the cell viability assays, cells were seeded onto 96-well plates at a density of 4 × 10^4 cells/well and grown at 37 °C at 5% CO2. After incubating the cells for 24 h, the culture media were replaced with fresh DMEM supplemented with 200 μM of the compounds 1771, compound 4, compound 8, and compound 9 and incubated further for an additional 24 h. The cytotoxicity of these drugs was measured using the LDH Cytotoxicity Assay Kit according to the manufacturer’s instruction (Thermo Scientific). The absorbance at 490 nm was measured with a CLARIOstar microplate reader (BMG Labtech), and the reference wavelength was set at 630 nm.

[2] = test system: LTA production in S. aureus (strain RN4220); assay: Western blot (immunoblotting) of LTA in S. aureus cell extracts; format: cell-based; conditions: for LTA production: Western blot of S. aureus cell extracts, 10 μM in Figure S14, 100 μM for compound 8
Protocol: The procedures of LTA detection using Western Blot had previously been reported by Gründling et al.[52] To determine the effect of the compounds on LTA production, 10 mL cultures of S. aureus (strain RN4220) in MH2 broth were incubated in an orbital shaker at 37 °C with either the compounds or DMSO. When the control cultures had reached an OD600nm ∼ 1, the bacteria were pelleted and the OD600nm of the cultures normalized by resuspension with the appropriate amount of MH2 broth. Subsequently, 1 mL from each cultures was mixed with 0.5 mL of 0.1 mm glass beads, and the bacteria were lyzed by vortexing at 4 °C for 45 min. After lysis, glass beads were removed by centrifugation at 200g, and the supernatants were transferred to a new tube. The membrane-associated LTA from each culture were pelleted by an additional centrifugation step of the supernatant at 16,000g for 15 min before resuspension in 30 μL of 2× SDS. The samples were boiled at 80 °C for 20 min, and the solubilized fractions were loaded onto 15% SDS-polyacrylamide gels prior to electrophoresis at 120 V for 1.5 h. The LTA on the gels were electrotransferred onto FL-immobilon PVDF membranes at 25 V for another 1.5 h. After the electrotransfer, the membranes were blocked with 5% skimmed milk for 1 h and incubated with the antimouse LTA antibody (clone G43J, Thermo Fisher Scientific; 1:1000 dilution) overnight at 4 °C. After washing, the membranes were incubated with antimouse IRDye 680RD (1:10,000 dilution) for 1 h, washed, and visualized using the Odyssey CLx Imaging System.

IsaA = assay: SDS-PAGE and LC/MS-MS analysis of the lysate of treated S. aureus; format: cell-based; conditions: S. aureus treated with 100 μM compound, SDS-PAGE
[3] = parameters: method as in PMID 23401520; conditions: lethal sepsis mouse model; cited from earlier work
LTA synthase (LtaS) = test system: LTA synthase (LtaS); parameters: method as in PMID 23401520; conditions: by inhibiting LtaS; cited from earlier work
[4] = test system: S. aureus (strain Newman); assay: Non-lethal S. aureus lung infection mouse model; format: in vivo, BALB/c female mice; conditions: 300 μg intranasally, infected BALB/c mice
Text: All in vivo experiments were done at the University of Liverpool under the UK Animals (Scientific Procedures) Act 1986 guidelines. The protocols were approved by the UK Home Office and by the University of Liverpool Animal Welfare and Ethics Committee. Six to eight week old BALB/c female mice (Charles River, UK) were used in the study after being left to acclimatize for a minimum of 7 days prior to experimentation. Mice were intranasally infected with 5 × 10^7 CFU of the S. aureus (strain Newman) in 50 μL of sterile phosphate-buffered saline (PBS). The bacterial dose was prepared by incubating 50 μL of an overnight culture in brain heart infusion (BHI) broth (Oxoid, Thermo Fisher Scientific, UK) into 5 mL of fresh BHI. Once the culture reached an OD600 = 2–3, the bacterial numbers were adjusted to the desired dose using sterile PBS. Three hours postinfection, mice were intranasally treated with either 50 μL of sterile PBS (control) or with 300 μg of compounds 1771 and compound 4 dissolved in 50 μL of sterile PBS. The final DMSO concentration was 5%, and the PBS control also contained 5% DMSO. Mice were culled 24 h postinfection; lungs were collected, homogenized, and serially diluted to determine CFU counts.[70] Significant differences were determined using the unpaired two-tailed Student t-test (p = 0.0013).

His416Ala eLtaS = biological target: T1, His416Ala eLtaS (Staphylococcus aureus, UniProt Q2G093, H416A); assay: Isothermal titration calorimetry, His416Ala eLtaS; format: binding, S. aureus; conditions: ITC, compared with wild-type eLtaS
T1 construct: LtaS is a transmembrane protein with a large extracellular catalytic domain (denoted as eLtaS); His-tag; made in house; host or cells: E. coli Rosetta 2 (DE3), pET19m
Text: (§1) The plasmid [Rosetta pProEX-eLtaS] from E coli strain ANG571 was extracted using the QIAprep Spin Miniprep Kit. Meanwhile, the genes encoding the mutant LtaS with mutations His416Ala, His347Ala, and Arg356Ala were extracted from the strains ANG1115, ANG1175, and ANG1178, respectively, using the QIAamp DNA Mini Kit. These genes were amplified using PCR, cut with NdeI/BamHI, and ligated into a pET19m transformed into E. coli Rosetta 2 (DE3) strain.
(§2) Each of the eLtaS proteins were purified from 6 L of E. coli cultures that were grown with aeration in LB medium supplemented with 200 μg/mL of carbenicillin and 34 μg/mL of chloramphenicol at 37 °C. When the cultures reached an OD600nm of about 0.6, protein expression was induced with 1 mM IPTG final concentration at 21 °C overnight. […] All four eLtaS proteins were subjected to circular dichroism analysis, and their exact masses were determined using MS.
(§3) The thawed eLtaS proteins were dialyzed using D-Tube Dialyzer Mini (EMD Millipore) in 20 mM Trizma-HCl pH 7.5, 100 mM NaCl with Chelex 100 (Sigma-Aldrich) for 1.5 h twice on the same day prior to the ITC experiments. […] Data were first analyzed in NITPIC[69] for baseline calculations and then fit for thermodynamic parameters using the OneSite model in Origin 7.0 software.

wild-type eLtaS = biological target: T2, wild-type eLtaS (Staphylococcus aureus, UniProt Q2G093); assay: Isothermal titration calorimetry, wild-type eLtaS; format: binding, S. aureus; conditions: ITC, 25 °C, wild-type eLtaS titrated into 10 μM inhibitor
T2 construct: LtaS is a transmembrane protein with a large extracellular catalytic domain (denoted as eLtaS); His-tag; made in house; host or cells: E. coli (Rosetta; plasmid pProEX-eLtaS from strain ANG571)
Protocol: Each of the eLtaS proteins were purified from 6 L of E. coli cultures that were grown with aeration in LB medium supplemented with 200 μg/mL of carbenicillin and 34 μg/mL of chloramphenicol at 37 °C. When the cultures reached an OD600nm of about 0.6, protein expression was induced with 1 mM IPTG final concentration at 21 °C overnight. Later, the bacteria were harvested by centrifugation at 11,899g, and the bacterial pellets were resuspended with lysis buffer (50 mM Trizma-HCl, pH 7.5, 300 mM NaCl, 5% glycerol, 10 mM imidazole, 5 mM β-mercaptoethanol). The bacterial pellets were lyzed by three passages through a high-pressure emulsifier, and the lysates were centrifuged at 47,596g for 30 min at 4 °C. The resulting supernatants containing the His-tagged eLtaS proteins were filtered with a 0.22 μm filter before being loaded onto a 5 mL Ni-NTA column using an ÄKTApure protein purification system. The bound proteins were subsequently washed with lysis buffer, eluted using the elution buffer (50 mM Trizma-HCl, pH 7.5, 300 mM NaCl, 5% glycerol, and 300 mM imidazole), and dialyzed twice using the dialysis buffer [25 mM Trizma-HCl, pH 7.5, 100 mM NaCl, 10% glycerol, 1 mM ethylenediaminetetraacetic acid (EDTA)]. After dialysis, protein purity was confirmed to be >90% using SDS-PAGE. Proteins were then concentrated, snap-frozen in liquid N2, and stored at −80 °C prior to usage. All four eLtaS proteins were subjected to circular dichroism analysis, and their exact masses were determined using MS.
The thawed eLtaS proteins were dialyzed using D-Tube Dialyzer Mini (EMD Millipore) in 20 mM Trizma-HCl pH 7.5, 100 mM NaCl with Chelex 100 (Sigma-Aldrich) for 1.5 h twice on the same day prior to the ITC experiments. After dialysis, the eLtaS proteins were centrifuged at 20,000g at 10 °C for 10 min. The supernatants were transferred to new microcentrifuge tubes and diluted to 100 μM using the same buffer as above with an addition of 0.1% (v/v) DMSO. Meanwhile, the eLtaS inhibitors were diluted to 10 μM using the same buffer and maintaining 0.1% (v/v) DMSO. The eLtaS proteins were titrated into the main cell containing the inhibitors using a VP-ITC at 25 °C. The injection parameters were set as follows: a reference power of 15 μcal/s, an initial injection of 3 μL over a duration of 3.6 s, and then subsequent injections of 10 μL over a duration of 12 s. All injections were spaced with 240 s with a filter period of 2 s. Data were first analyzed in NITPIC[69] for baseline calculations and then fit for thermodynamic parameters using the OneSite model in Origin 7.0 software.

His347Ala eLtaS = biological target: T3, His347Ala eLtaS (Staphylococcus aureus, UniProt Q2G093, H347A); assay: Isothermal titration calorimetry, His347Ala eLtaS; format: binding, S. aureus; conditions: ITC, compared with wild-type eLtaS
T3 construct: LtaS is a transmembrane protein with a large extracellular catalytic domain (denoted as eLtaS); His-tag; made in house; host or cells: E. coli Rosetta 2 (DE3), pET19m
Text: as §1, §2, §3

Arg356Ala eLtaS = biological target: T4, Arg356Ala eLtaS (Staphylococcus aureus, UniProt Q2G093, R356A); assay: Isothermal titration calorimetry, Arg356Ala eLtaS; format: binding, S. aureus; conditions: ITC, compared with wild-type eLtaS
T4 construct: LtaS is a transmembrane protein with a large extracellular catalytic domain (denoted as eLtaS); His-tag; made in house; host or cells: E. coli Rosetta 2 (DE3), pET19m
Text: as §1, §2, §3

[5] = Staphylococcus aureus, NEWMAN, 20 h

With `O=C(Nc1ccc(Oc2ccc(NC(=O)Nc3ccc([N+](=O)[O-])cc3)cc2)cc1)Nc1ccc([N+](=O)[O-])cc1` [Compound 8] as the compound, how does the IC50 [1] read?
The IC50 was 29.4 µM.

What about the IC50 [1, 5] of the same compound?
The IC50 was 29.4 µM.

What about the “cytotoxicity (LDH release)” value (HEK293 cells) of the same compound?
Its value is “cytotoxic”.

And the LTA production [2]?
Its LTA production is “did not decrease LTA production”.

What about the “electrophoretic mobility of the LTA extracted from treated S. aureus” value ([2]; Western blot, 100 μM compound) of the same compound?
Its value is “decreased electrophoretic mobility and higher heterogeneity”.

And the “protein upregulation in the lysate (IsaA, a peptidoglycan hydrolase)” value (IsaA)?
Its value is “upregulated a 24 kDa protein”.

For `Cc1cccc(COc2ccccc2C(=O)OCC(=O)Nc2nnc(-c3ccccc3)o2)c1` [Compound 6], which IC50 [1] is on record?
The IC50 was 11.1 ± 0.49 µM.

And the LTA production [2]?
The LTA production was “able to reduce LTA production”.

Which IC50 [1] does the source give for `COc1ccccc1Nc1ncccc1C(=O)OCC(=O)Nc1nnc(-c2ccccc2)o1` [Compound 2] here?
The IC50 was 12.3 ± 0.38 µM.

For `Cc1csc(SCc2ccccc2C(=O)OCC(=O)Nc2nnc(-c3ccccc3)o2)n1` [Compound 3], which IC50 [1] is on record?
The IC50 was 13.4 ± 0.35 µM.

And the LTA production [2]?
The LTA production was “able to reduce LTA production”.

For `O=C(COC(=O)Cc1coc2ccc3ccccc3c12)Nc1nnc(-c2ccccc2)o1` [compound 1771], which IC50 [1] is on record?
The IC50 was 14.9 ± 1.59 µM.

And the IC50 [1, 5]?
The IC50 was 14.5 µM.

What about the in vivo stability [3] of the same compound?
The in vivo stability was “lost activity over time due to in vivo instability”.

What about the “survival of infected mice” value [3] of the same compound?
The value was “temporarily prolong the survival of the infected mice”.

What about the LTA synthesis (LTA synthase (LtaS)) of the same compound?
Its LTA synthesis is “able to suppress LTA synthesis”.

What about the tolerability in mice [4] of the same compound?
Its tolerability in mice is “did not tolerate the latter well”.

And the “binding affinity to the His416Ala eLtaS variant” value (His416Ala eLtaS)?
Its value is “slight increase in binding affinities”.

What about the Kd (wild-type eLtaS) of the same compound?
The Kd was 0.457 ± 0.0071 µM.

And the “binding to the His347Ala eLtaS variant” value (His347Ala eLtaS)?
The value was “abolished”.

What about the “binding affinity to the Arg356Ala eLtaS variant” value (Arg356Ala eLtaS) of the same compound?
Its value is “slight increase in binding affinities”.

For `O=C(COC(=O)/C=C/c1ccc2ccccc2n1)Nc1nnc(-c2ccccc2)o1` [Compound 7], which IC50 [1] is on record?
Its IC50 is 12.4 ± 1.9 µM.

For `O=C(COC(=O)CSC(c1ccccc1)c1ccccc1)Nc1nnc(-c2ccccc2)o1` [Compound 5], which IC50 [1] is on record?
The IC50 was 17.5 ± 1.08 µM.
